Patent US20040106626A1, “6-Membered unsaturated heterocyclic compounds useful for selective inhibition of the coagulation cascade” (Pharmacia Corporation, priority 2001, published 2004)
Like-named read-outs stand apart in the source and are kept apart here.

What was measured:
Format in all cases: biochemical
[1] = target: T1, recombinant soluble tissue factor and recombinant human factor VIIa (TF-VIIa) (Homo sapiens, UniProt P08709); assay: TF-VIIa assay (chromogenic substrate hydrolysis); conditions: reported only as less than or greater than 0.1 uM
T1 construct: conversion of coagulation factor VII to VIIa by factor Xa; purchased American Diagnostica, Greenwich CT; host or cells: soluble TF made in house in E. coli
T1 sequence (P08709 213-466 limits assumed): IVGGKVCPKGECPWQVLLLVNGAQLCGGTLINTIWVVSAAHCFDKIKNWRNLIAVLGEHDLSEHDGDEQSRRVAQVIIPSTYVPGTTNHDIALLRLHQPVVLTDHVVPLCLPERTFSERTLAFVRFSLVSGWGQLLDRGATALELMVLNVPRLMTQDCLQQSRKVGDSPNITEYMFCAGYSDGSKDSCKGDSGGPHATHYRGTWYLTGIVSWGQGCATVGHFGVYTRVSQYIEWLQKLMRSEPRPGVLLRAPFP
T1 sequence (P08709 61-212 limits assumed): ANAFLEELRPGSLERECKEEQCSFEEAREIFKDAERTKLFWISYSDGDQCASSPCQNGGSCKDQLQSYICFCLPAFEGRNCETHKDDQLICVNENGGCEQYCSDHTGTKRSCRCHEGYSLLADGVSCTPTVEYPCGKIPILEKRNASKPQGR
T1 sequence (P13726 33-251 partner limits assumed): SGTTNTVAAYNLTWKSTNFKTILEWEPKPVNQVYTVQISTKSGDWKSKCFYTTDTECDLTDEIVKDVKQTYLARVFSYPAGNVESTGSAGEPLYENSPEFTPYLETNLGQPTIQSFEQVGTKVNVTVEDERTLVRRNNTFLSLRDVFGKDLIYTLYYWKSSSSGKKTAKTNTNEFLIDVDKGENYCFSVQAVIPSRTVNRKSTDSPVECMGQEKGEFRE
In short: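 Chromogenic read at OD405, compared with control for percent inhibition. Substrate N-methylsulfonyl-D-phe-gly-arg-p-nitroaniline at 0.4 mM is cleaved by recombinant human VIIa (2 nM) complexed with soluble TF (100 nM). Buffer: pH 8.0 Tris-HCl 50 mM, CaCl2 5 mM, NaCl 100 mM, BSA 0.1%.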

[2] = target: T2, Human factor Xa (Homo sapiens, UniProt P00742); assay: Xa assay (chromogenic substrate S-2765); conditions: reported only as less than or greater than 30 uM; read-out: Factor Xa (II) IC50
T2 construct: purchased Enzyme Research Laboratories, South Bend Ind
T2 sequence (P00742 235-488 limits assumed): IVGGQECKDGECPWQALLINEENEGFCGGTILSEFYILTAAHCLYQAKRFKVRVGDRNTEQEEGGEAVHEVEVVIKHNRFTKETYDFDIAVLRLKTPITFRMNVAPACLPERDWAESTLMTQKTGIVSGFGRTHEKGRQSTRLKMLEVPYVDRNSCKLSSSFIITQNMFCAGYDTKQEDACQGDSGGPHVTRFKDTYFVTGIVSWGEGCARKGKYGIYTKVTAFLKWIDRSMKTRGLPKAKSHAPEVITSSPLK
T2 sequence (P00742 41-179 limits assumed): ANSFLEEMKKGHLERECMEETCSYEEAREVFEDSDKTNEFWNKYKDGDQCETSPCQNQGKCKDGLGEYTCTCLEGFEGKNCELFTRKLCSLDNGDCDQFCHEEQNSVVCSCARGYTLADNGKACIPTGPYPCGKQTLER
In short: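 Chromogenic readout: S-2765 hydrolysis (0.15 mM) by 0.3 nM human FXa was monitored at 405 nm after 60 min at room temperature, with a time-zero background read. Buffer: 50 mM Tris-HCl, pH 8.0, 100 mM NaCl, 0.1% BSA. Inhibition is relative to buffer-only controls.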

[3] = target: T3, Human thrombin (Homo sapiens, UniProt P00734); assay: Thrombin assay (chromogenic substrate)
T3 construct: converts prothrombin (II) to thrombin (IIa); purchased Calbiochem, La Jolla, Calif
In short: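 Percent inhibition derived by comparing OD405 nm of compound-treated and control samples. Thrombin cleavage of a p-nitroanilide chromogenic substrate provides the signal.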

[4] = tested on: Normal human pooled plasma; assay: Prothrombin time (PT) clotting assay; conditions: concentration at which prothrombin time is prolonged by 2x normal, reported as less than or greater than 50 uM
In short: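 Normal human pooled plasma incubated with 100 uM compound or saline, then thromboplastin (human tissue factor) added and clotting time recorded in a coagulation machine. Compounds exceeding 3× normal PT (11.0 s) are titrated to find the concentration doubling PT.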

[5] = reported only as less than or greater than 30 uM, read-out: Thrombin (II) IC50

Structure (SMILES)	IC50 [1] [µM]	IC50 [2] [µM]	IC50 [3, 5] [µM]	PT (Prothrombin time) 2xPT [4] [µM]	IC50 ([3]; Thrombin (II) IC50, reported only as less than or greater than 30 uM) [µM]
N=C(N)c1ccc(CNC(=O)Cn2c(-c3cc(N)cc(C(=O)O)c3)cnc(NC3CC3)c2=O)cc1.O=C(O)C(F)(F)F [Example 204, 3-amino-5-[1-[2-({4-[amino(imino)methyl]benzyl}amino)-2-oxoethyl]-5-(cyclopropylamino)-6-oxo-1,6-dihydropyrazin-2-yl]benzoic Acid]	< 0.1	> 30	> 30	<50.0	
CCOC(=O)c1cc(N)cc(-c2cnc(NC3CC3)c(=O)n2CC(=O)NCc2ccc(C(=N)N)cc2)c1.O=C(O)C(F)(F)F [Example 207, Ethyl 3-amino-5-[1-[2-({4-[amino(imino)methyl]benzyl}amino)-2-oxoethyl]-5-(cyclopropylamino)-6-oxo-1,6-dihydropyrazin-2-yl]benzoate]	< 0.1	> 30	> 30	<50.0	
CCC(CC)COc1cc(N)cc(-c2cnc(NC(C)C)c(=O)n2CC(=O)NCc2ccc(C(=N)N)cc2)c1.O=C(O)C(F)(F)F.O=C(O)C(F)(F)F [Example 209]	< 0.1	> 30	> 30	50	
CC(C)Nc1ncc(-c2cc(N)cc(OCCc3ccccc3)c2)n(CC(=O)NCc2ccc(C(=N)N)cc2)c1=O.O=C(O)C(F)(F)F.O=C(O)C(F)(F)F [Example 211]	< 0.1	> 30	> 30	<50.0	
CC(C)Nc1ncc(-c2cc(N)cc(OC3CCCC3)c2)n(CC(=O)NCc2ccc(C(=N)N)cc2)c1=O.O=C(O)C(F)(F)F.O=C(O)C(F)(F)F [Example 212]	< 0.1	> 30	> 30	<50.0	
CC(C)Nc1ncc(-c2cc(N)cc(OCC(C)(C)N(C)C)c2)n(CC(=O)NCc2ccc(C(=N)N)cc2)c1=O.O=C(O)C(F)(F)F.O=C(O)C(F)(F)F [Example 213]	< 0.1	> 30	> 30	<50.0	
CC(C)CCOc1cc(N)cc(-c2cnc(NC(C)C)c(=O)n2CC(=O)NCc2ccc(C(=N)N)cc2)c1.O=C(O)C(F)(F)F.O=C(O)C(F)(F)F [Example 214]	< 0.1	> 30	> 30	<50.0	
CC(C)Nc1ncc(-c2cc(N)cc(OCCC(C)(C)C)c2)n(CC(=O)NCc2ccc(C(=N)N)cc2)c1=O.O=C(O)C(F)(F)F.O=C(O)C(F)(F)F [Example 215]	< 0.1	> 30	> 30	<50.0	
CC(C)Nc1ncc(-c2cc(N)cc(OC(C)C)c2)n(CC(=O)NCc2ccc(C(=N)N)cc2)c1=O.O=C(O)C(F)(F)F.O=C(O)C(F)(F)F [Example 216]	< 0.1	> 30	> 30	<50.0	
CC(C)Nc1ncc(-c2cc(N)cc(OCC(C)(C)CN(C)C)c2)n(CC(=O)NCc2ccc(C(=N)N)cc2)c1=O.O=C(O)C(F)(F)F.O=C(O)C(F)(F)F [Example 217]	< 0.1	> 30	< 30	<50.0	
CC(C)Nc1ncc(-c2cc(N)cc(OC3Cc4ccccc4C3)c2)n(CC(=O)NCc2ccc(C(=N)N)cc2)c1=O.O=C(O)C(F)(F)F.O=C(O)C(F)(F)F [Example 218]	< 0.1	> 30	> 30	<50.0	
COCCOc1cc(N)cc(-c2cnc(NC(C)C)c(=O)n2CC(=O)NCc2ccc(C(=N)N)cc2)c1.O=C(O)C(F)(F)F.O=C(O)C(F)(F)F [Example 219]	< 0.1	> 30	> 30	<50.0	
CC(C)Nc1ncc(-c2cc(N)cc(OCC3CCCC3)c2)n(CC(=O)NCc2ccc(C(=N)N)cc2)c1=O.O=C(O)C(F)(F)F.O=C(O)C(F)(F)F [Example 220]	< 0.1	> 30	> 30	<50.0	
CC(C)Nc1ncc(-c2cc(N)cc(OCC3CCCCC3)c2)n(CC(=O)NCc2ccc(C(=N)N)cc2)c1=O.O=C(O)C(F)(F)F.O=C(O)C(F)(F)F [Example 221]	< 0.1	> 30	> 30	>50.0	
CCCCOc1cc(N)cc(-c2cnc(NC(C)C)c(=O)n2CC(=O)NCc2ccc(C(=N)N)cc2)c1.O=C(O)C(F)(F)F.O=C(O)C(F)(F)F [Example 222]	< 0.1	> 30	> 30	<50.0	
CC(C)Nc1ncc(-c2cc(N)cc(OCC3CC3)c2)n(CC(=O)NCc2ccc(C(=N)N)cc2)c1=O.O=C(O)C(F)(F)F.O=C(O)C(F)(F)F [Example 223]	< 0.1	> 30	> 30	<50.0	
CCC(C)Oc1cc(N)cc(-c2cnc(NC(C)C)c(=O)n2CC(=O)NCc2ccc(C(=N)N)cc2)c1.O=C(O)C(F)(F)F.O=C(O)C(F)(F)F (centres unmarked) [Example 224]	< 0.1	> 30	> 30	<50.0	
CC(C)Nc1ncc(-c2cc(N)cc(OC3CCCCC3)c2)n(CC(=O)NCc2ccc(C(=N)N)cc2)c1=O.O=C(O)C(F)(F)F.O=C(O)C(F)(F)F [Example 225]	< 0.1	> 30	> 30	>50.0	
CC(C)Nc1ncc(-c2cc(N)cc(-c3nnn[nH]3)c2)n(CC(=O)NCc2ccc(C(=N)N)cc2)c1=O.O=C(O)C(F)(F)F [Example 227, N-{4-[amino(imino)methyl]benzyl}-2-[6-[3-amino-5-(1H-tetraazol-5-yl)phenyl]-3-(isopropylamino)-2-oxopyrazin-1 (2H)-yl]acetamide]	< 0.1	> 30	> 30	<50.0	
CC(C)Nc1ncc(-c2cc(N)cc(S(=O)(=O)CC(C)(C)C)c2)n(CC(=O)NCc2ccc(C(=N)N)cc2)c1=O.O=C(O)C(F)(F)F.O=C(O)C(F)(F)F [Example 228]	< 0.1	> 30	> 30	<50.0	
CCC(CC)CS(=O)(=O)c1cc(N)cc(-c2cnc(NC(C)C)c(=O)n2CC(=O)NCc2ccc(C(=N)N)cc2)c1.O=C(O)C(F)(F)F.O=C(O)C(F)(F)F [Example 229]	< 0.1	> 30	> 30	<50.0	
CCCCS(=O)(=O)c1cc(N)cc(-c2cnc(NC(C)C)c(=O)n2CC(=O)NCc2ccc(C(=N)N)cc2)c1.O=C(O)C(F)(F)F.O=C(O)C(F)(F)F [Example 230]	< 0.1	> 30	> 30	<50.0	
CCC(CC)S(=O)(=O)c1cc(N)cc(-c2cnc(NC(C)C)c(=O)n2CC(=O)NCc2ccc(C(=N)N)cc2)c1.O=C(O)C(F)(F)F.O=C(O)C(F)(F)F [Example 231]	< 0.1	> 30	> 30	<50.0	
CCS(=O)(=O)c1cc(N)cc(-c2cnc(NC(C)C)c(=O)n2CC(=O)NCc2ccc(C(=N)N)cc2)c1.O=C(O)C(F)(F)F.O=C(O)C(F)(F)F [Example 232]	< 0.1	> 30	> 30	<50.0	
CC(C)Nc1ncc(-c2cc(N)cc(S(=O)(=O)CC3CCCCC3)c2)n(CC(=O)NCc2ccc(C(=N)N)cc2)c1=O.O=C(O)C(F)(F)F.O=C(O)C(F)(F)F [Example 233]	< 0.1	> 30	> 30	<50.0	
CC(C)Nc1ncc(-c2cc(N)cc(S(=O)(=O)C3CCCC3)c2)n(CC(=O)NCc2ccc(C(=N)N)cc2)c1=O.O=C(O)C(F)(F)F.O=C(O)C(F)(F)F [Example 235]	< 0.1	> 30	> 30	<50.0	
CCC(C)CS(=O)(=O)c1cc(N)cc(-c2cnc(NC(C)C)c(=O)n2CC(=O)NCc2ccc(C(=N)N)cc2)c1.O=C(O)C(F)(F)F.O=C(O)C(F)(F)F (centres unmarked) [Example 237]	< 0.1	> 30	> 30	<50.0	
CC(C)Nc1ncc(-c2cc(N)cc(OC(=O)C3CC3)c2)n(CC(=O)NCc2ccc(C(=N)N)cc2)c1=O.O=C(O)C(F)(F)F.O=C(O)C(F)(F)F [Example 238]	< 0.1	> 30	> 30	<50.0	
CC(C)Nc1ncc(-c2cc(N)cc(OC(=O)NCc3ccccc3)c2)n(CC(=O)NCc2ccc(C(=N)N)cc2)c1=O.O=C(O)C(F)(F)F.O=C(O)C(F)(F)F [Example 239]	< 0.1	> 30		<50.0	> 30
